From PubChem BioAssay AID228 (DTP/NCI, 2004)
Values joined by “and” are separate entries in the source; they are usually repeats but may differ in a detail not shown here. Identical values can stand only once. Results filed as inconclusive are left out.

Test system: BDF1 mice, Friend leukemia sc, tumor weight T/C
Assay: NCI In Vivo Anticancer Drug Screen. Data for tumor model Friend Virus Leukemia (Solid) (subcutaneous) in B6D2F1 (BDF1) mice
Details: endpoint: mean tumor weight, higher = larger tumour
Experimental: The antitumor activity of compounds was measured in mice bearing transplantable tumors. Survival or tumor size were measured and the results are expressed as the measurement made in the treated group (T) divided by the measurement made in the vehicle treated control group (C). The tumor model used in this assay is Friend Virus Leukemia (Solid) (subcutaneous) in B6D2F1 (BDF1) mice

[1] = dose: 125.0 mg/kg/injection, schedule: Q01DX011 (ip), vehicle: saline
[2] = dose: 62.5 mg/kg/injection, schedule: Q01DX011 (ip), vehicle: carboxymethylcellulose (CMC)
[3] = dose: 50.0 mg/kg/injection, schedule: Q01DX011 (ip), vehicle: saline
[4] = dose: 100.0 mg/kg/injection, schedule: Q01DX011 (ip), vehicle: saline
[5] = dose: 200.0 mg/kg/injection, schedule: Q01DX011 (ip), vehicle: saline
[6] = dose: 25.0 mg/kg/injection, schedule: Q01DX011 (ip), vehicle: carboxymethylcellulose (CMC)
[7] = dose: 50.0 mg/kg/injection, schedule: Q01DX011 (ip), vehicle: carboxymethylcellulose (CMC)

SMILES: O=P(c1ccccc1)(N1CC1)N1CC1
- T/C (dose: 6.0 mg/kg/injection, schedule: Q01DX011 (ip), vehicle: saline): 106 % of control
- T/C (dose: 12.0 mg/kg/injection, schedule: Q01DX011 (ip), vehicle: saline): 124 % of control
- T/C (dose: 24.0 mg/kg/injection, schedule: Q01DX011 (ip), vehicle: saline): 80 % of control

SMILES: CS(=O)(=O)OCC(=O)NCCNC(=O)COS(C)(=O)=O
- T/C (dose: 20.0 mg/kg/injection, schedule: Q01DX011 (ip), vehicle: carboxymethylcellulose (CMC)): 93 % of control
- T/C (dose: 31.0 mg/kg/injection, schedule: Q01DX011 (ip), vehicle: saline): 110 % of control
- T/C (dose: 40.0 mg/kg/injection, schedule: Q01DX011 (ip), vehicle: carboxymethylcellulose (CMC)): 101 % of control
- T/C (dose: 62.0 mg/kg/injection, schedule: Q01DX011 (ip), vehicle: saline): 108 % of control
- T/C (dose: 80.0 mg/kg/injection, schedule: Q01DX011 (ip), vehicle: carboxymethylcellulose (CMC)): 52 % of control
- T/C [1]: 89 % of control
- T/C (dose: 250.0 mg/kg/injection, schedule: Q01DX011 (ip), vehicle: saline): 60 % of control

SMILES: N#CCSc1ncnc2nc[nH]c12
- T/C (dose: 15.5 mg/kg/injection, schedule: Q01DX011 (ip), vehicle: carboxymethylcellulose (CMC)): 91 % of control
- T/C (dose: 31.0 mg/kg/injection, schedule: Q01DX011 (ip), vehicle: carboxymethylcellulose (CMC)): 32 % of control
- T/C [2]: 18 % of control

SMILES: CCCCCCCCCCCCn1c(C)nc2ccccc21
- T/C (dose: 1.0 mg/kg/injection, schedule: Q01DX011 (ip), vehicle: carboxymethylcellulose (CMC)): 114 % of control
- T/C (dose: 2.0 mg/kg/injection, schedule: Q01DX011 (ip), vehicle: carboxymethylcellulose (CMC)): 75 % of control
- T/C (dose: 4.0 mg/kg/injection, schedule: Q01DX011 (ip), vehicle: carboxymethylcellulose (CMC)): 97 % of control
- T/C (dose: 8.0 mg/kg/injection, schedule: Q01DX011 (ip), vehicle: carboxymethylcellulose (CMC)): 76 % of control

SMILES: OCC1OC(Oc2ccc(O)cc2)C(O)C(O)C1O (stereo not drawn)
- T/C (dose: 25.0 mg/kg/injection, schedule: Q01DX011 (ip), vehicle: saline): 84 % of control
- T/C [3]: 97 % of control
- T/C [4]: 97 % of control
- T/C [5]: 75 % of control

SMILES: O=c1cnn(C2OC(CO)C(O)C2O)c(=O)[nH]1 (stereo not drawn)
- T/C (dose: 62.5 mg/kg/injection, schedule: Q01DX011 (ip), vehicle: saline): 160 % of control
- T/C [1]: 170 % of control
- T/C (dose: 500.0 mg/kg/injection, schedule: Q01DX011 (ip), vehicle: saline): 105 % of control

SMILES: NC(=O)c1ccc(NC(=O)CCC(=O)Nc2ccc(C(N)=O)cn2)nc1
- T/C (dose: 0.5 mg/kg/injection, schedule: Q01DX011 (ip), vehicle: saline): 106 % of control
- T/C (dose: 1.0 mg/kg/injection, schedule: Q01DX011 (ip), vehicle: saline): 117 % of control
- T/C (dose: 2.0 mg/kg/injection, schedule: Q01DX011 (ip), vehicle: saline): 106 % of control
- T/C (dose: 4.0 mg/kg/injection, schedule: Q01DX011 (ip), vehicle: saline): 57 % of control

SMILES: CCn1cnc2c(=S)nc[nH]c21
- T/C [6]: 105 % of control
- T/C [7]: 66 % of control
- T/C (dose: 100.0 mg/kg/injection, schedule: Q01DX011 (ip), vehicle: carboxymethylcellulose (CMC)): 12 % of control

SMILES: CCN(CC)CC(C)Nc1ccc(C)c2sc3ccccc3c(=O)c12 (stereo not drawn)
- T/C [6]: 103 % of control
- T/C [7]: 60 % of control

SMILES: COc1ccc2c(c1OC)C(=O)O[C@@H]2[C@H]1c2c(cc3c(c2OC)OCO3)CCN1C
- T/C [3]: 110 % of control
- T/C [4]: 99 % of control
- T/C [5]: 85 % of control

SMILES: CS(=O)(=O)OCCCCOS(C)(=O)=O
- T/C (dose: 6.62 mg/kg/injection, schedule: Q01DX011 (ip), vehicle: carboxymethylcellulose (CMC)): 107 % of control
- T/C (dose: 7.0 mg/kg/injection, schedule: Q01DX011 (ip), vehicle: carboxymethylcellulose (CMC)): 65 % of control
- T/C (dose: 13.25 mg/kg/injection, schedule: Q01DX011 (ip), vehicle: carboxymethylcellulose (CMC)): 68 % of control
- T/C (dose: 14.0 mg/kg/injection, schedule: Q01DX011 (ip), vehicle: carboxymethylcellulose (CMC)): 91 % of control
- T/C (dose: 26.5 mg/kg/injection, schedule: Q01DX011 (ip), vehicle: carboxymethylcellulose (CMC)): 110 % of control
- T/C (dose: 27.0 mg/kg/injection, schedule: Q01DX011 (ip), vehicle: carboxymethylcellulose (CMC)): 55 % of control
- T/C (dose: 53.0 mg/kg/injection, schedule: Q01DX011 (ip), vehicle: carboxymethylcellulose (CMC)): 66 % of control

SMILES: CCCCCCCCCCCCCCCCC(C(=O)O)C(O)(CC(=O)O)C(=O)O (stereo not drawn)
- T/C (dose: 19.0 mg/kg/injection, schedule: Q01DX011 (ip), vehicle: carboxymethylcellulose (CMC)): 107 % of control
- T/C (dose: 37.5 mg/kg/injection, schedule: Q01DX011 (ip), vehicle: carboxymethylcellulose (CMC)): 100 % of control
- T/C (dose: 75.0 mg/kg/injection, schedule: Q01DX011 (ip), vehicle: carboxymethylcellulose (CMC)): 35 % of control

SMILES: NC1(C(=O)O)CCCC1
- T/C (dose: 4.5 mg/kg/injection, schedule: Q01DX011 (ip), vehicle: carboxymethylcellulose (CMC)): 95 % of control
- T/C (dose: 9.0 mg/kg/injection, schedule: Q01DX011 (ip), vehicle: carboxymethylcellulose (CMC)): 89 % of control
- T/C (dose: 18.0 mg/kg/injection, schedule: Q01DX011 (ip), vehicle: carboxymethylcellulose (CMC)): 63 % of control
- T/C (dose: 36.0 mg/kg/injection, schedule: Q01DX011 (ip), vehicle: carboxymethylcellulose (CMC)): 53 % of control

SMILES: NC(=O)/C=C\C(=O)O (tested in a mixture with another compound)
- T/C (dose: 31.0 mg/kg/injection, schedule: Q#A X022 (ip), vehicle: carboxymethylcellulose (CMC)): 85 % of control
- T/C (dose: 62.5 mg/kg/injection, schedule: Q#A X022 (ip), vehicle: carboxymethylcellulose (CMC)): 75 % of control
- T/C (dose: 125.0 mg/kg/injection, schedule: Q#A X022 (ip), vehicle: carboxymethylcellulose (CMC)): 65 % of control
- T/C (dose: 250.0 mg/kg/injection, schedule: Q#A X022 (ip), vehicle: carboxymethylcellulose (CMC)): 58 % of control

SMILES: CN(C)c1nc(N(C)C)nc(N(C)C)n1
- T/C (dose: 3.75 mg/kg/injection, schedule: Q01DX011 (ip), vehicle: other): 104 % of control
- T/C (dose: 7.5 mg/kg/injection, schedule: Q01DX011 (ip), vehicle: other): 83 % of control
- T/C (dose: 15.0 mg/kg/injection, schedule: Q01DX011 (ip), vehicle: other): 112 % of control
- T/C (dose: 30.0 mg/kg/injection, schedule: Q01DX011 (ip), vehicle: other): 84 % of control

SMILES: O=c1[nH]cnc2n[nH]nc12
- T/C [2]: 71 % of control
- T/C (dose: 125.0 mg/kg/injection, schedule: Q01DX011 (ip), vehicle: carboxymethylcellulose (CMC)): 55 % of control
- T/C (dose: 250.0 mg/kg/injection, schedule: Q01DX011 (ip), vehicle: carboxymethylcellulose (CMC)): 31 % of control and 36 % of control
- T/C (dose: 500.0 mg/kg/injection, schedule: Q01DX011 (ip), vehicle: carboxymethylcellulose (CMC)): 11 % of control and 17 % of control

SMILES: C[C@]12CC[C@@H]3c4ccc(O)cc4CC[C@H]3[C@@H]1CC[C@@H]2O
- T/C (dose: 1.0 mg/kg/injection, schedule: Q01DX011 (sc), vehicle: steriod suspending solution): 74 % of control
- T/C (dose: 5.0 mg/kg/injection, schedule: Q01DX011 (sc), vehicle: steriod suspending solution): 104 % of control
- T/C (dose: 10.0 mg/kg/injection, schedule: Q01DX011 (sc), vehicle: steriod suspending solution): 71 % of control
- T/C (dose: 20.0 mg/kg/injection, schedule: Q01DX011 (sc), vehicle: steriod suspending solution): 73 % of control
- T/C (dose: 40.0 mg/kg/injection, schedule: Q01DX011 (sc), vehicle: steriod suspending solution): 61 % of control
- T/C (dose: 80.0 mg/kg/injection, schedule: Q01DX011 (sc), vehicle: steriod suspending solution): 75 % of control
- T/C (dose: 100.0 mg/kg/injection, schedule: Q01DX011 (sc), vehicle: steriod suspending solution): 103 % of control
- T/C (dose: 150.0 mg/kg/injection, schedule: Q01DX011 (sc), vehicle: steriod suspending solution): 106 % of control
- T/C (dose: 200.0 mg/kg/injection, schedule: Q01DX011 (sc), vehicle: steriod suspending solution): 101 % of control
- T/C (dose: 400.0 mg/kg/injection, schedule: Q01DX011 (sc), vehicle: steriod suspending solution): 110 % of control
- T/C (dose: 500.0 mg/kg/injection, schedule: Q01DX011 (sc), vehicle: steriod suspending solution): 86 % of control and 107 % of control
